Experiments:
[1] = system: kidney mitochondria of UCP2 knockout mice; experiment: Proton leak titration in isolated kidney mitochondria of UCP2 knockout mice with superoxide-generating system; format: biochemical; settings: 50 μM genipin with 50 mM xanthine and 0.2 mU/3.5 mL xanthine oxidase, FIG. 3
Description: FIG. 3 is a graph showing the effect of genipin on superoxide-activated, UCP2-dependent proton leak in isolated kidney mitochondria of UCP2 knockout mice. Proton leak titration was performed in the presence of a superoxide-generating system (xanthine plus xanthine oxidase) essentially as described (Echtay et al. 2002, Nature 415, 96-99). Graphs show the rate of proton leak as a function of its driving force, mitochondrial membrane potential. ♦, control; ▪, xanthine (50 mM) plus xanthine oxidase (0.2mU/3.5 ml). Δ, xanthine/xanthine oxidase plus 50 μM genipin. Mitochondria were incubated with genipin in the oxygen electrode for 5 minutes before xanthine oxidase was added (to initiate the generation of superoxide). Western-blot analysis confirmed that there was no UCP2 protein in mitochondria from UCP2 knockout mice. Data are means +/−S.E.M. of four independent experiments.
Wildtype and UCP2 knockout mice were used for isolation of kidney mitochondria. Fresh tissues were minced in ice-cold STE buffer (250 mM sucrose, 5 mM Tris, 2 mM EGTA, pH 7.4 at 4° C.), and disrupted in a Dounce homogenizer. Cell debris was removed by centrifugation of the homogenate at 500×g for 3 min. The supernatant was centrifuged at 10,000×g for 8 min., and the mitochondrial pellet was resuspended in ice-cold STE buffer. Mitochondria were subjected to another cycle of centrifugation at 750 and 10,000×g. […]

[2] = system: UCP2 KO islets; experiment: Glucose-stimulated insulin secretion in UCP2 KO islets after chronic hyperglycemia; format: cell-based, mice; settings: UCP2 KO islets after 72 hours at 25 mM glucose; 5 μM genipin; FIG. 12B
Description: Pancreatic islets were isolated from WT (FIG. 12A) or UCP2 KO mice (FIG. 12B) and subjected to chronic incubations at low (5.5 mM) and high glucose (25 mM). In a separate experiment, islets were isolated from ob/ob mice (FIG. 12C). Islets were incubated for a total of 72 hours and washed, and then insulin-secretion studies were performed using three different concentrations of glucose (5.5, 12.5, and 25 mM) with or without 5 μM genipin. Results are means±SEM of four independent experiments (FIGS. 12A and 12B) or eight to twenty repeats of one representative experiment (FIG. 12C). WT islets that were chronically incubated at low glucose released increasing amounts of insulin in response to increasing concentrations of glucose (FIG. 12A, left panel). Following chronic hyperglycemia, islets increased basal insulin release, but were completely unresponsive to glucose stimulation (FIG. 12A, middle panel). […] To assess the role of genipin in hyperglycemia-induced loss of glucose responsiveness, genipin was acutely added into islets during the insulin-release phase of the study. […] To see whether this effect of genipin is mediated by UCP2, islets were isolated from UCP2 KO mice and then incubated in chronic hyperglycemia. […]

With COC(=O)C1=CO[C@@H](O)[C@@H]2C(CO)=CC[C@H]12 [genipin] the “rate of proton leak as a function of mitochondrial membrane potential” value [1] was “proton leak occurred at approximately the same membrane potential as that observed for kidney mitochondria from UCP2 knockout mice exposed to the superoxide-generating system alone” and the “glucose-stimulated insulin secretion (GSIS)” value [2] was “no additional beneficial effect on GSIS”.

— patent US8093288B2, “Genipin derivatives and uses thereof” (Beth Israel Deaconess Medical Center, priority 2003, dated 2012)
